Test results taken from ChEMBL document CHEMBL3774389, “C-3 benzoic acid derivatives of C-3 deoxybetulinic acid and deoxybetulin as HIV-1 maturation inhibitors” (Bioorg Med Chem, 2016).
pEC50: −log10 of the molar value.

Assays:
[1] = tested on: Human immunodeficiency virus 1; experiment: Ratio of EC50 for HIV1 NLRepRlucP373S infected in human MT2 cells in presence of HSA to EC50 for HIV1 NLRepRlucP373S infected in human MT2 cells in absence of HSA; format: functional
[2] = tested on: Human immunodeficiency virus 1; experiment: Antiviral activity against wild type HIV1 NLRepRlucP373S infected in human MT2 cells after 4 to 5 days by luciferase report gene based multiple cycle drug susceptibility assay; format: functional, organism-based; conditions: Human immunodeficiency virus 1, NLRepRlucP373S
[3] = Cytotoxicity against human MT2 cells assessed as cell viability by redox dye assay; format: cell-based
[4] = tested on: Human immunodeficiency virus 1; experiment: Antiviral activity against HIV1 containing gag V370A mutant infected in human MT2 cells after 4 to 5 days by luciferase report gene based multiple cycle drug susceptibility assay; format: functional, organism-based; conditions: Human immunodeficiency virus 1, MT2
[5] = tested on: Human immunodeficiency virus 1; experiment: Antiviral activity against wild type HIV1 NLRepRlucP373S infected in human MT2 cells after 4 to 5 days in presence of 15 mg/ml HSA by luciferase report gene based multiple cycle drug susceptibility assay; format: functional, organism-based; conditions: Human immunodeficiency virus 1, NLRepRlucP373S
[6] = Oral bioavailability in rat at 5 mg/kg by LC-MS/MS; format: ADME, organism-based; conditions: in vivo
[7] = Tmax in rat at 5 mg/kg, po by LC-MS/MS; format: ADME, organism-based; conditions: in vivo
[8] = Clearance in cannula implanted rat at 1 mg/kg, iv by LC-MS/MS; format: ADME, organism-based; conditions: in vivo
[9] = Volume of distribution in steady state in cannula implanted rat at 1 mg/kg, iv by LC-MS/MS; format: ADME, organism-based; conditions: in vivo, read-out: Vdss
[10] = Half life in rat liver microsomes at 0.5 uM by LC-MS/MS analysis in presence of NADPH; format: ADME
[11] = Cmax in rat at 5 mg/kg, po by LC-MS/MS; format: ADME, organism-based; set-up: dose 5 mg/kg, route oral; conditions: in vivo
[12] = Solubility of the compound; format: physicochemical
[13] = Half life in human liver microsomes at 0.5 uM by LC-MS/MS analysis in presence of NADPH; format: ADME
[14] = AUC(0 to 6 hrs) in rat at 5 mg/kg, po by LC-MS/MS; format: ADME, organism-based; set-up: time < 6 hr, dose 5 mg/kg, route oral; conditions: in vivo

Row | SMILES | Ratio EC50 [1] | pEC50 [2] | CC50 [3] [nM] | pEC50 [4] | pEC50 [5] | also measured
1 | C=C(C)[C@@H]1CC[C@]2(CO)CC[C@]3(C)[C@H](CC[C@@H]4[C@@]5(C)CC=C(c6ccc(C(=O)O)c(OC)c6)C(C)(C)[C@@H]5CC[C@]43C)[C@@H]12 | 2.3 | 6.29 | 28700 | < 5.40 | 5.93 | 
2 | C=C(C)[C@@H]1CC[C@]2(CO)CC[C@]3(C)[C@H](CC[C@@H]4[C@@]5(C)CC=C(c6ccc(C(=O)O)cc6F)C(C)(C)[C@@H]5CC[C@]43C)[C@@H]12 | 1 | 7.26 | 16500 | 5.85 | 7.30 | 
3 | C=C(C)[C@@H]1CC[C@]2(C(=O)O)CC[C@]3(C)[C@H](CC[C@@H]4[C@@]5(C)CC=C(c6ccc(C(=O)O)c(F)c6)C(C)(C)[C@@H]5CC[C@]43C)[C@@H]12 | 3.7 | 7.74 | 10100 | 7.44 | 7.17 | 
4 | C=C(C)[C@@H]1CC[C@]2(CO)CC[C@]3(C)[C@H](CC[C@@H]4[C@@]5(C)CC=C(c6csc(C(=O)O)c6)C(C)(C)[C@@H]5CC[C@]43C)[C@@H]12 |  | 6.42 | 14100 | < 5.70 |  | 
5 | C=C(C)[C@@H]1CC[C@]2(CO)CC[C@]3(C)[C@H](CC[C@@H]4[C@@]5(C)CC=C(c6cc(C(=O)O)no6)C(C)(C)[C@@H]5CC[C@]43C)[C@@H]12 | 7.5 | 7.41 | 12100 | < 5.70 | 6.53 | 
6 | C=C(C)[C@@H]1CC[C@]2(C(=O)O)CC[C@]3(C)[C@H](CC[C@@H]4[C@@]5(C)CC=C(c6ccc(C(=O)NS(=O)(=O)C(C)C)cc6)C(C)(C)[C@@H]5CC[C@]43C)[C@@H]12 | 2.2 | 6.91 | 8680 | 6.03 | 6.56 | 
7 | C=C(C)[C@@H]1CC[C@]2(CO)CC[C@]3(C)[C@H](CC[C@@H]4[C@@]5(C)CC=C(c6ccc(C(=O)O)cn6)C(C)(C)[C@@H]5CC[C@]43C)[C@@H]12 |  | 6.30 | 4300 | < 5.70 |  | 
8 | C=C(C)[C@@H]1CC[C@]2(C(=O)O)CC[C@]3(C)[C@H](CC[C@@H]4[C@@]5(C)CC=C(c6ccn(CC(=O)O)n6)C(C)(C)[C@@H]5CC[C@]43C)[C@@H]12 |  | 6.78 | > 30000 | < 5.52 |  | 
9 | C=C(C)[C@@H]1CC[C@]2(C(=O)O)CC[C@]3(C)[C@H](CC[C@@H]4[C@@]5(C)CC=C(c6ccc(C(=O)O)c(Cl)c6)C(C)(C)[C@@H]5CC[C@]43C)[C@@H]12 | 15 | 7.68 | 3080 | 6.23 | 6.48 | 
10 | C=C(C)[C@@H]1CC[C@]2(CO)CC[C@]3(C)[C@H](CC[C@@H]4[C@@]5(C)CC=C(c6ccc([N+](=O)[O-])cc6)C(C)(C)[C@@H]5CC[C@]43C)[C@@H]12 |  | < 5.40 | 20000 | < 5.40 | < 5.40 | 
11 | C=C(C)[C@@H]1CC[C@]2(CO)CC[C@]3(C)[C@H](CC[C@@H]4[C@@]5(C)CC=C(c6ccc(C(=O)O)c(Cl)c6)C(C)(C)[C@@H]5CC[C@]43C)[C@@H]12 | 3.9 | 7.62 | 1970 | 6.58 | 7.03 | 
12 | C=C(C)[C@@H]1CC[C@]2(C(=O)O)CC[C@]3(C)[C@H](CC[C@@H]4[C@@]5(C)CC=C(c6ccc(NC(=O)CCC(=O)O)cc6)C(C)(C)[C@@H]5CC[C@]43C)[C@@H]12 |  | 5.83 | 7730 | 5.80 |  | 
13 | C=C(C)[C@@H]1CC[C@]2(CO)CC[C@]3(C)[C@H](CC[C@@H]4[C@@]5(C)CC=C(c6ccc(C(=O)O)cc6C)C(C)(C)[C@@H]5CC[C@]43C)[C@@H]12 | 1 | 6.21 | 7020 | 5.41 | 6.18 | 
14 | C=C(C)[C@@H]1CC[C@]2(CO)CC[C@]3(C)[C@H](CC[C@@H]4[C@@]5(C)CC=C(c6ccc(C(=O)O)c(C(=O)O)c6)C(C)(C)[C@@H]5CC[C@]43C)[C@@H]12 |  | 7.42 | > 20000 | 6.67 |  | 
15 | C=C(C)[C@@H]1CC[C@]2(CO)CC[C@]3(C)[C@H](CC[C@@H]4[C@@]5(C)CC=C(c6cnc(C(=O)O)nc6)C(C)(C)[C@@H]5CC[C@]43C)[C@@H]12 | 1 | 5.97 | 22300 | < 5.40 | 5.97 | 
16 | C=C(C)[C@@H]1CC[C@]2(C(=O)O)CC[C@]3(C)[C@H](CC[C@@H]4[C@@]5(C)CC[C@H](OC(=O)CC(C)(C)CC(=O)O)C(C)(C)[C@@H]5CC[C@]43C)[C@@H]12 | 227 | 8.40 | 4250 |  | 6.04 | 
17 | C=C(C)[C@@H]1CC[C@]2(CO)CC[C@]3(C)[C@H](CC[C@@H]4[C@@]5(C)CC=C(c6cc(C(=O)O)[nH]n6)C(C)(C)[C@@H]5CC[C@]43C)[C@@H]12 |  | 7.21 | 570 | 6.46 |  | 
18 | C=C(C)[C@@H]1CC[C@]2(C(=O)O)CC[C@]3(C)[C@H](CC[C@@H]4[C@@]5(C)CC=C(c6ccc(O)cc6)C(C)(C)[C@@H]5CC[C@]43C)[C@@H]12 |  | 6.51 | 13400 |  | < 5.10 | 
19 | C=C(C)[C@@H]1CC[C@]2(CO)CC[C@]3(C)[C@H](CC[C@@H]4[C@@]5(C)CC=C(c6ccc(-c7nn[nH]n7)cc6)C(C)(C)[C@@H]5CC[C@]43C)[C@@H]12 |  | 5.47 | 34300 | < 5.40 |  | 
20 | C=C(C)[C@@H]1CC[C@]2(CO)CC[C@]3(C)[C@H](CC[C@@H]4[C@@]5(C)CC=C(c6ccc(NS(C)(=O)=O)cc6)C(C)(C)[C@@H]5CC[C@]43C)[C@@H]12 |  | < 5.80 | 8820 | < 5.80 | < 5.80 | 
21 | C=C(C)[C@@H]1CC[C@]2(CO)CC[C@]3(C)[C@H](CC[C@@H]4[C@@]5(C)CC=C(c6ccc(C(=O)O)c(O)c6)C(C)(C)[C@@H]5CC[C@]43C)[C@@H]12 | 0.8 | 7.09 | 9760 | 5.56 | 7.19 | 
22 | C=C(C)[C@@H]1CC[C@]2(CO)CC[C@]3(C)[C@H](CC[C@@H]4[C@@]5(C)CC=C(c6ccc(C(=O)O)cc6)C(C)(C)[C@@H]5CC[C@]43C)[C@@H]12 | 2.5 | 7.96 | 9650 | 6.67 | 7.57 | bioavailability [6]: 4%; Tmax [7]: 5 h; clearance [8]: 2.1 mL/min/kg; Vd [9]: 0.5 L/kg; half-life at 0.5 µM [10]: 2 h; Cmax [11]: 590 nM; solubility [12]: Insoluble; half-life at 0.5 µM [13]: 2 h; AUC(0-t) at 6 h [14]: 2.14 µM·h
23 | C=C(C)[C@@H]1CC[C@]2(CO)CC[C@]3(C)[C@H](CC[C@@H]4[C@@]5(C)CC=C(c6ccc(C(=O)O)cc6Cl)C(C)(C)[C@@H]5CC[C@]43C)[C@@H]12 | 1 | 6.94 | 17300 | < 5.40 | 6.93 | 
24 | C=C(C)[C@@H]1CC[C@]2(CO)CC[C@]3(C)[C@H](CC[C@@H]4[C@@]5(C)CC=C(c6ccc(C(=O)O)c(F)c6)C(C)(C)[C@@H]5CC[C@]43C)[C@@H]12 | 4 | 7.34 | 18800 | 6.51 | 6.73 | 
